Experimental data published in US10179781B2, “Sodium channel modulators for the treatment of pain” (CHROMOCELL CORPORATION, priority 2013, dated 2019).

molecular target: T1, NaV1.7 (Homo sapiens, UniProt Q15858); assay: FDSS membrane potential in-vitro assay; format: cell-based; conditions: HEK293 cells expressing NaV1.7 α, β1, β2, veratridine and scorpion venom stimulation
T1 construct: expressed in transfected cells
T1 sequence (Q15858 whole entry): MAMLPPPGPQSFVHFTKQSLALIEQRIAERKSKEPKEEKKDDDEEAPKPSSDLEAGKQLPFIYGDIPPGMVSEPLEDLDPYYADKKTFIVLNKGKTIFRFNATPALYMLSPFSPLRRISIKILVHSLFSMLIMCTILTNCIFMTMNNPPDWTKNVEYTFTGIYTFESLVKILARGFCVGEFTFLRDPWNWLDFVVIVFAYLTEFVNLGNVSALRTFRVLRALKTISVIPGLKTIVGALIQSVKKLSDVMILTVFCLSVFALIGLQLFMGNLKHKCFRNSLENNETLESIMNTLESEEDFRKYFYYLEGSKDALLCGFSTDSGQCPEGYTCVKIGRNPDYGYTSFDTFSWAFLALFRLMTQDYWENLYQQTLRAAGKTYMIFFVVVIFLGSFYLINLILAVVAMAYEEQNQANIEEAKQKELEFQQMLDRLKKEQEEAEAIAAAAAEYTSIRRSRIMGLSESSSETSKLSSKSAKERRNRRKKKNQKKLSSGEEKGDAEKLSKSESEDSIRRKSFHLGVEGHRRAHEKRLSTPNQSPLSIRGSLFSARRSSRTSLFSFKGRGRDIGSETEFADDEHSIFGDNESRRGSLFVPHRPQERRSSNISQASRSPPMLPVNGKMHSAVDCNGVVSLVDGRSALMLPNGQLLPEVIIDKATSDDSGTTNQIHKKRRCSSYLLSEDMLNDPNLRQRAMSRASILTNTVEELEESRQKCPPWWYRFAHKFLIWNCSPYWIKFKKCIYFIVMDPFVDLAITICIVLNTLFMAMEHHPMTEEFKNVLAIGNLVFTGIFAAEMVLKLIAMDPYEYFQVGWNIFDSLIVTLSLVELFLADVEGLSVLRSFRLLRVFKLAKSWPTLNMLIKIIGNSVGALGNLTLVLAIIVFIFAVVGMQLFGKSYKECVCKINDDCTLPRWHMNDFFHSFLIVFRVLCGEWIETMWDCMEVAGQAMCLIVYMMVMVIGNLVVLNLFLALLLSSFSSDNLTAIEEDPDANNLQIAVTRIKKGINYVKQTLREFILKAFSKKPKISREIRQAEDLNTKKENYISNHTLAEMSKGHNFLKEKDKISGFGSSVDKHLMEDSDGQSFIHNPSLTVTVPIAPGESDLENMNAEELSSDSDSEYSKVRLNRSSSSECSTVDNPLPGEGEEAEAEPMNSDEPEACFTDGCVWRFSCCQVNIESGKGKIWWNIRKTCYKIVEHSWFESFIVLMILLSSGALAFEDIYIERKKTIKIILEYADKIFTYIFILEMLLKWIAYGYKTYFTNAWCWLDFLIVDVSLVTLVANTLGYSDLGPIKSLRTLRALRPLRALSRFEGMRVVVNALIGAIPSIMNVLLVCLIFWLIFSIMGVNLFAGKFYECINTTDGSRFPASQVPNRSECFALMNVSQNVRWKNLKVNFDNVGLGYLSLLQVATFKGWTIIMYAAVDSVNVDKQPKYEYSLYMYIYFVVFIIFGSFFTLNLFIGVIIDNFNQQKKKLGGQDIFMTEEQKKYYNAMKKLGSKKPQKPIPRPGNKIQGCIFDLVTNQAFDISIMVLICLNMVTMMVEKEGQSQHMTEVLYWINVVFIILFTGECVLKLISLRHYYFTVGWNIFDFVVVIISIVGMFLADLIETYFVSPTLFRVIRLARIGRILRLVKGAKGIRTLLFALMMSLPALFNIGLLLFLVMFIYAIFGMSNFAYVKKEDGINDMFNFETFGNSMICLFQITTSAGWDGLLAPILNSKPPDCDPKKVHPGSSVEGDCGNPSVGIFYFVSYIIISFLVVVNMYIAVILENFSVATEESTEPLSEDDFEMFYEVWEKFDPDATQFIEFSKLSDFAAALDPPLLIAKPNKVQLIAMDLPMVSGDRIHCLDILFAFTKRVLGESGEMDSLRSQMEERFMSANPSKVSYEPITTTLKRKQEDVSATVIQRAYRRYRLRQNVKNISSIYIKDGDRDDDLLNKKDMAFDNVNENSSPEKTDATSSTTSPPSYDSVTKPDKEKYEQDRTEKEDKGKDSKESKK
T1 sequence (Q07699 19-218 partner): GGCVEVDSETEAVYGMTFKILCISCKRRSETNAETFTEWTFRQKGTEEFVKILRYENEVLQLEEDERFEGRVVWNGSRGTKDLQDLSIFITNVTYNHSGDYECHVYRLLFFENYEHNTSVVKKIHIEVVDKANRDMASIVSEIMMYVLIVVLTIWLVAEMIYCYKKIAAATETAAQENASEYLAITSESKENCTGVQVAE
T1 sequence (O60939 30-215 partner): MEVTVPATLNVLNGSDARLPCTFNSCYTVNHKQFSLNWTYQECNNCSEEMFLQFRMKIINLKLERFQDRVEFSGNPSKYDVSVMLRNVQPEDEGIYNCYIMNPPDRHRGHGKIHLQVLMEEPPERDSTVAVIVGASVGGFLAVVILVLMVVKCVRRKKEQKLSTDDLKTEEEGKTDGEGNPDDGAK

SMILES | IC50 [µM]
O=C(O)C1CCN(CCCc2cc(Cl)ccc2Oc2cc(F)c(S(=O)(=O)Nc3cscn3)cc2Cl)CC1 [Example 14, 1-(3-(5-chloro-2-(2-chloro-5-fluoro-4-(N-(thiazol-4-yl)sulfamoyl)phenoxy)phenyl)propyl)piperidine-4-carboxylic acid] | > 1
NC(CCNCCCc1cc(Cl)ccc1Oc1cc(F)c(S(=O)(=O)Nc2cscn2)cc1Cl)C(=O)O (stereo not shown) [Example 17, 2-amino-4-((3-(5-chloro-2-(2-chloro-5-fluoro-4-(N-(thiazol-4-yl)sulfamoyl)phenoxy)phenyl)propyl)amino)butanoic acid] | > 1
O=C(O)C1CCCN(CCCc2cc(Cl)ccc2Oc2cc(F)c(S(=O)(=O)Nc3cscn3)cc2Cl)C1 (stereo not shown) [Example 19, 1-(3-(5-chloro-2-(2-chloro-5-fluoro-4-(N-(thiazol-4-yl)sulfamoyl)phenoxy)phenyl)propyl)piperidine-3-carboxylic acid] | > 1
O=C(O)CNCCCc1cc(Cl)ccc1Oc1cc(F)c(S(=O)(=O)Nc2cscn2)cc1F [Example 21, 2-((3-(5-chloro-2-(2,5-difluoro-4-(N-(thiazol-4-yl)sulfamoyl)phenoxy)phenyl)propyl)amino)acetic acid] | > 1
O=C(O)CCNCCCc1cc(Cl)ccc1Oc1cc(F)c(S(=O)(=O)Nc2cscn2)cc1F [Example 22, 3-((3-(5-chloro-2-(2,5-difluoro-4-(N-(thiazol-4-yl)sulfamoyl)phenoxy)phenyl)propyl)amino)propanoic acid] | > 1
N#Cc1cc(S(=O)(=O)Nc2cscn2)ccc1Oc1ccc(Cl)cc1CCCNCCC(=O)O [Example 23, 3-((3-(5-chloro-2-(2-cyano-4-(N-(thiazol-4-yl)sulfamoyl)phenoxy)phenyl)propyl)amino)propanoic acid] | > 1

tested on: Acetic Acid Writhing Model; assay: Acetic Acid Writhing Model (visceral pain); format: in vivo; conditions: relative to vehicle control; 10 to 30 mg/kg intraperitoneal
Procedure: Writhing Model The Acetic Acid Writhing Model is associated with visceral pain (abdominal pain, such as stomach pain, and pain caused by, for example, bile duct congestion and kidney stones). A writhing test assesses acute peritoneovisceral pain. After acclimation of 2-3 days, a test compound, positive control or vehicle control is administered by intraperitoneal injection (i.p.) or by oral gavage 15-30 minutes prior to administration of acetic acid. The time of administration of test compound is recorded. For mice: 0.6% Acetic acid solution in saline is injected i.p in a volume of 10 ml/kg. For rats: 4% acetic acid in saline is injected i.p in a volume of 2 ml/kg at T=0 minutes. Each animal is placed in a clear plastic cage. At T=5 minutes, the number of writhing movements is counted over a 45 minute period. Alternatively, the writhing movements are counted over a 5-minute period and repeated every 5 minutes, starting at T=5 minutes over a 45-minute period.

SMILES | reduction in pain response, writhing
O=C(O)CNC(=O)c1cc(-c2cc(Cl)ccc2Oc2cc(F)c(S(=O)(=O)Nc3ncns3)cc2Cl)ccn1 [Example 2, 2-(4-(2-(4-(N-(1,2,4-thiadiazol-5-yl)sulfamoyl)-2-chloro-5-fluorophenoxy)-5-chlorophenyl)picolinamido)acetic acid] | 48-58%
